Test results: patent US20250129078A1, “ERBB2 INHIBITORS” (Cogent Biosciences, Inc., priority 2023, published 2025)
pIC50: −log10 of the molar value. Read-outs that look alike come from different tables or passages of the source.

Key:
[1] = target: EGFR WT (Homo sapiens (Human), UniProt P00533); experiment: ErbB enzyme assay (CisBio HTRF-KinEASE-TK), EGFR WT; format: biochemical; settings: ATP at Km (25 μM), 1 h incubation
Summary of the method: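 Potency comes from a homogeneous time-resolved fluorescence kinase format measuring tyrosine substrate phosphorylation. Reactions and detection steps each run 1 h at ambient temperature. IC50 values are interpolated from 4-parameter logistic fits of percent-of-control data.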

[2] = target: ErbB2 V777L (Homo sapiens (Human), UniProt P04626, V777L); experiment: ErbB enzyme assay (CisBio HTRF-KinEASE-TK), ErbB2 V777L; format: biochemical
ErbB2 V777L, sequence (P04626 23-1255 V777L): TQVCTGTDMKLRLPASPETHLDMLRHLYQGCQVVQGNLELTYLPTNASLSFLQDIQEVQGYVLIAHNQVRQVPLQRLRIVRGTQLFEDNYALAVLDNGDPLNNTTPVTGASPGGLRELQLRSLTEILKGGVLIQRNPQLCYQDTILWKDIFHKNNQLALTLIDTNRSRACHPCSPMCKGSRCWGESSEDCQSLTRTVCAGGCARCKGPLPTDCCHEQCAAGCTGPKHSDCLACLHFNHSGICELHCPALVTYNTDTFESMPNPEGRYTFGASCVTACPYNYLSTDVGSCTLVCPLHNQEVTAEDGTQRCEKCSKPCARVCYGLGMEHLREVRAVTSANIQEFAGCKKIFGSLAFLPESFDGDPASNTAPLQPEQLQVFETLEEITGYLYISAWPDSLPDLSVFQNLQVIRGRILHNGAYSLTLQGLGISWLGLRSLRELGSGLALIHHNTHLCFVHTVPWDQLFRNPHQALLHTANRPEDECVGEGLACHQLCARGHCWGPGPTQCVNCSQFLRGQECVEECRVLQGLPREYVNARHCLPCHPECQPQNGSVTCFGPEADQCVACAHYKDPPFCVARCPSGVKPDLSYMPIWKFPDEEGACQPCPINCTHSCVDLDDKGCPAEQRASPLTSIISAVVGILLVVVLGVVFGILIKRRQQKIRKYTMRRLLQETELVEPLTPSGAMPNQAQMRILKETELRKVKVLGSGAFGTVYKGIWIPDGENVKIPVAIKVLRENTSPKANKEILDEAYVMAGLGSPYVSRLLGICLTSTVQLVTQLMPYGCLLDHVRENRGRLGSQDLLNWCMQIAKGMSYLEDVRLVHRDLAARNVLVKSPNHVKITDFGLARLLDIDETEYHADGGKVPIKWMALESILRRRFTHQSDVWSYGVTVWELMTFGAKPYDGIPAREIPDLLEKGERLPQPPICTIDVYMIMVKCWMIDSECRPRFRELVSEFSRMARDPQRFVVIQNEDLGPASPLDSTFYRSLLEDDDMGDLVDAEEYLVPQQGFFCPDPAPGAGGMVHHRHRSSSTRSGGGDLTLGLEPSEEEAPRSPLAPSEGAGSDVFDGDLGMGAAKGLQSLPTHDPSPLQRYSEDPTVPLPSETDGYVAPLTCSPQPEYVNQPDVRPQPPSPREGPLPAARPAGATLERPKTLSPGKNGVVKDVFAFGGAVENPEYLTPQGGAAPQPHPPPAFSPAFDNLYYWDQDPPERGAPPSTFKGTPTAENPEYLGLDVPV
Description: In vitro enzyme assays based on CisBio HTRF-KinEASE-TK technology were used to determine compound potencies. […] After another 1 h incubation at ambient temperature, the extent of substrate phosphorylation was determined using a PerkinElmer EnVision multimode plate reader via time-resolved fluorescence dual wavelength detection. The percent of control (POC) was calculated using the ratio of emission at […] to the emission at 620 nm. One hundred POC was determined using DMSO only controls (no test compounds present) and zero POC was determined using pre-quenched controls reactions. A 4-parameter logistic equation was fit to the POC values as a function of the test compound concentration and the IC50 value was determined as the point where the curve crossed 50 POC.

[3] = ErbB2 V777L enzyme, ATP at Km (110 μM), 1 h incubation

EGFR WT, sequence (P00533 25-1210): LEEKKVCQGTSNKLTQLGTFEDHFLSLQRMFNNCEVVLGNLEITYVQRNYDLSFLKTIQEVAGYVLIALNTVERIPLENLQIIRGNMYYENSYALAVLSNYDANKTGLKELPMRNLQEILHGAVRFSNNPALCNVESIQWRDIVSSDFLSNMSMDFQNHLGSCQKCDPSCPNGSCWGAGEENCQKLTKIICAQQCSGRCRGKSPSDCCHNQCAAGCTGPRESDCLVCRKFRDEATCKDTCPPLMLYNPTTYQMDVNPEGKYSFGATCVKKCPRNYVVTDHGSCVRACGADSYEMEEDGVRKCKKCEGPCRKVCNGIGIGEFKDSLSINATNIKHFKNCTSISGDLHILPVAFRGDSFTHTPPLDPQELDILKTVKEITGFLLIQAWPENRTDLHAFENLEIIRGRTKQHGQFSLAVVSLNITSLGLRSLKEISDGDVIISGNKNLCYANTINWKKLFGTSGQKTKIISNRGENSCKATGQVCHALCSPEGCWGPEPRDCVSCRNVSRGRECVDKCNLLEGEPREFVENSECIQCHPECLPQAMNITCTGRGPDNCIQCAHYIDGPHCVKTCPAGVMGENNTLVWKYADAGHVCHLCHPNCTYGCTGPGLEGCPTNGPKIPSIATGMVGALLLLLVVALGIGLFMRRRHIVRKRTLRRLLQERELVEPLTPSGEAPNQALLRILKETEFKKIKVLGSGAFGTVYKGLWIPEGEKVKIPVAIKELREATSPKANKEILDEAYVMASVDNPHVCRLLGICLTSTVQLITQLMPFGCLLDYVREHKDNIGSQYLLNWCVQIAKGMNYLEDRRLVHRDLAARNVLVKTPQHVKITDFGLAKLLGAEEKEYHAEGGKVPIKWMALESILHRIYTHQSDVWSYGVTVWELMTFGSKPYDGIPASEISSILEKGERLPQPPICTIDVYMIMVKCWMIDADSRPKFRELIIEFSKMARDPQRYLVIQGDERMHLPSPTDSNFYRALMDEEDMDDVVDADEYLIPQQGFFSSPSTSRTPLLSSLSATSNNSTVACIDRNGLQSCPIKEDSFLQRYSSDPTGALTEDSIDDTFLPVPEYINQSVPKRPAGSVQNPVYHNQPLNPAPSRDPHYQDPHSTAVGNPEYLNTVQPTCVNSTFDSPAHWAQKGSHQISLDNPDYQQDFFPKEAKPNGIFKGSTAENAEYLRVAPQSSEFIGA

Row | pIC50 [1] | pIC50 [2] | pIC50 [2, 3] | Compound
1 |  |  | 6.00 to 6.30 | C=CC(=O)N1CCN(c2ncc3ncnc(Nc4cc(C)c(Oc5cc(F)c6c(c5)nnn6C)cc4OC)c3n2)C[C@H]1C [Compound 166, (R)-1-(4-(8-((4-((7-fluoro-1-methyl-1H-benzo[d][1,2,3]triazol-5-yl)oxy)-2-methoxy-5-methylphenyl)amino)pyrimido[5,4-d]pyrimidin-2-y1)-2-methylpiperazin-1-yl)prop-2-en-1-one]
2 | 6.30 to 7.00 |  |  | C=CC(=O)N[C@]1(C)CCN(c2ccc3ncnc(Nc4ccc(Oc5ccc6c(c5)nnn6C)c(C)c4)c3n2)C1 [Compound 263, (R)-N-(3-methyl-1-(4-((3-methyl-4-((1-methyl-1H-benzo[d][1,2,3]triazol-5-yl)oxy)phenyl)amino)pyrido[3,2-d]pyrimidin-6-yl)pyrrolidin-3-yl)acrylamide]
3 | > 7.30 |  |  | C=CC(=O)N1CCN(c2nc3c(Nc4ccc(Oc5cc(F)c6c(c5)nnn6C)c(C)c4F)ncnc3cc2OC)CC1 [Compound 99, 1-(4-(4-((2-fluoro-4-((7-fluoro-1-methyl-1H-benzo[d][1,2,3]triazol-5-yl)oxy)-3-methylphenyl)amino)-7-methoxypyrido[3,2-d]pyrimidin-6-yl)piperazin-1-yl)prop-2-en-1-one]
4 | 7.00 to 7.30 |  |  | COC[C@@H]1CN(c2ccc3ncnc(Nc4ccc(Oc5ccc6c(c5)nnn6C)c(C)c4)c3n2)CCN1C(=O)/C=C/CF [Compound 363, (S,E)-4-fluoro-1-(2-(methoxymethyl)-4-(4-((3-methyl-4-((1-methyl-1H-benzo[d][1,2,3]triazol-5-yl)oxy)phenyl)amino)pyrido[3,2-d]pyrimidin-6-yl)piperazin-1-yl)but-2-en-1-one]
5 | 6.30 to 7.00 |  |  | C=CC(=O)N[C@H]1CCN(c2ncc3ncnc(Nc4ccc(Oc5ccc6c(c5)nnn6C)c(C)c4)c3n2)C1 [Compound 154, (S)-N-(1-(8-((3-methyl-4-((1-methyl-1H-benzo[d][1,2,3]triazol-5-yl)oxy)phenyl)amino)pyrimido [5,4-d]pyrimidin-2-yl)pyrrolidin-3-yl)acrylamide]
6 | 6.30 to 7.00 |  |  | C=CC(=O)N[C@@H]1C[C@@H](C)CN(c2ccc3ncnc(Nc4ccc(Oc5ccc6c(c5)nnn6C)c(C)c4F)c3n2)C1 (single isomer, unassigned) [Compound 338]
7 | 6.30 to 7.00 |  |  | C=CC(=O)N1CCN(c2ccc3ncnc(Nc4cc(Cl)c(Oc5ccc6c(c5)nnn6C)cc4F)c3n2)CC1 [Compound 244, 1-(4-(4-((5-chloro-2-fluoro-4-((1-methyl-1H-benzo[d][1,2,3]triazol-5-yl)oxy)phenyl)amino)pyrido[3,2-d]pyrimidin-6-yl)piperazin-1-yl)prop-2-en-1-one]
8 | > 7.30 |  |  | C=CC(=O)N1CCN(c2ccc3ncnc(Nc4cc(C)c(Oc5ccn6ncnc6c5)cc4OC)c3n2)C[C@H]1C [Compound 318, (R)-1-(4-(4-((4-([1,2,4]triazolo[1,5-a]pyridin-7-yloxy)-2-methoxy-5-methylphenyl)amino)pyrido[3,2-d]pyrimidin-6-yl)-2-methylpiperazin-1-yl)prop-2-en-1-one]
9 | 6.30 to 7.00 |  |  | C=CC(=O)N1CCN(c2ncc3ncnc(Nc4ccc(Oc5ccc6c(c5)nnn6C)c(C(F)(F)F)c4)c3n2)CC1 [Compound 43, 1-(4-(8-((4-((1-methyl-1H-benzo[d][1,2,3]triazol-5-yl)oxy)-3-(trifluoromethyl)phenyl)amino)pyrimido[5,4-d]pyrimidin-2-yl)piperazin-1-yl)prop-2-en-1-one]

The remaining lines, values behind:

Row | Compound | pIC50 [1] | pIC50 [2] | pIC50 [2, 3]
10 | C=CC(=O)N1CCN(c2ncc3ncnc(Nc4cc(C)c(Oc5ccc6c(c5)nnn6C)c(F)c4)c3n2)C[C@H]1C [Compound 155, (R)-1-(4-(8-((3-fluoro-5-methyl-4-((1-methyl-1H-benzo[d][1,2,3]triazol-5-yl)oxy)phenyl)amino)pyrimido[5,4-d]pyrimidin-2-y1)-2-methylpiperazin-1-yl)prop-2-en-1-one] | 6.00 to 6.30 | 6.30 to 7.00 | 
11 | C=CC(=O)N1CCN(c2ccc3ncnc(Nc4ccc(Oc5ccc6c(c5)nnn6C)c(C)c4)c3n2)CC[C@@H]1C [Compound 354, (S)-1-(7-methyl-4-(4-((3-methyl-4-((1-methyl-1H-benzo[d][1,2,3]triazol-5-yl)oxy)phenyl)amino)pyrido[3,2-d]pyrimidin-6-yl)-1,4-diazepan-1-yl)prop-2-en-1-one] | 6.00 to 6.30 | 6.30 to 7.00 | 
12 | C=CC(=O)N1CCN(c2ccc3ncnc(Nc4c(OC)cc(Oc5ccc6c(c5)nnn6C)c(C)c4F)c3n2)CC1 [Compound 251, 1-(4-(4-((2-fluoro-6-methoxy-3-methyl-4-((1-methyl-1H-benzo[d][1,2,3]triazol-5-yl)oxy)phenyl)amino)pyrido[3,2-d]pyrimidin-6-yl)piperazin-1-yl)prop-2-en-1-one] | 6.30 to 7.00 | 6.30 to 7.00 | 
13 | C=CC(=O)N1CCCN(c2ccc3ncnc(Nc4ccc(Oc5ccc6c(c5)nnn6C)c(C)c4)c3n2)CC1 [Compound 353, 1-(4-(4-((3-methyl-4-((1-methyl-1H-benzo[d][1,2,3]triazol-5-yl)oxy)phenyl)amino)pyrido[3,2-d]pyrimidin-6-yl)-1,4-diazepan-1-yl)prop-2-en-1-one] |  |  | 6.30 to 7.00
14 | C=CC(=O)N1[C@H](C)CN(c2ncc3ncnc(Nc4ccc(Oc5ccc6c(c5)nnn6C)c(C)c4)c3n2)C[C@H]1C [Compound 183, 1-((2R,6R)-2,6-dimethyl-4-(8-((3-methyl-4-((1-methyl-1H-benzo[d][1,2,3]triazol-5-yl)oxy)phenyl)amino)pyrimido[5,4-d]pyrimidin-2-yl)piperazin-1-yl)prop-2-en-1-one] | ≤ 6.00 |  | 
15 | C=CC(=O)N1CCCN(c2ncc3ncnc(Nc4ccc(Oc5ccc6c(c5)nnn6C)c(C)c4)c3n2)C[C@@H]1C [Compound 165, (S)-1-(2-methyl-4-(8-((3-methyl-4-((1-methyl-1H-benzo[d][1,2,3]triazol-5-yl)oxy)phenyl)amino)pyrimido[5,4-d]pyrimidin-2-y1)-1,4-diazepan-1-yl)prop-2-en-1-one] | ≤ 6.00 |  | 
16 | C=CC(=O)N[C@H]1[C@@H]2C[C@H]1CN(c1ncc3ncnc(Nc4ccc(Oc5ccc6c(c5)nnn6C)c(C)c4)c3n1)C2 [Compound 207, N-((1R,5S,6r)-3-(8-((3-methyl-4-((1-methyl-1H-benzo[d][1,2,3]triazol-5-yl)oxy)phenyl)amino)pyrimido[5,4-d]pyrimidin-2-yl)-3-azabicyclo[3.1.1]heptan-6-yl)acrylamide] | 6.30 to 7.00 |  | 
17 | C=CC(=O)N[C@]1(C)CCCN(c2ccc3ncnc(Nc4ccc(Oc5ccc6c(c5)nnn6C)c(C)c4F)c3n2)C1 [Compound 303, (R)-N-(1-(4-((2-fluoro-3-methyl-4-((1-methyl-1H-benzo[d][1,2,3]triazol-5-yl)oxy)phenyl)amino)pyrido[3,2-d]pyrimidin-6-yl)-3-methylpiperidin-3-yl)acrylamide] | > 7.30 |  | 
18 | C=CC(=O)N1CCN(c2ncc3ncnc(Nc4ccc(Oc5ccc6c(c5)ncn6C(F)F)c(C)c4)c3n2)C[C@H]1C [Compound 162, (R)-1-(4-(8-((4-((1-(difluoromethyl)-1H-benzo[d]imidazol-5-yl)oxy)-3-methylphenyl)amino)pyrimido[5,4-d]pyrimidin-2-y1)-2-methylpiperazin-1-yl)prop-2-en-1-one] | 6.30 to 7.00 |  | 
19 | C=CC(=O)N[C@@H]1[C@@H]2C[C@H]1CN(c1ncc3ncnc(Nc4ccc(Oc5ccc6c(c5)nnn6C)c(C)c4)c3n1)C2 [Compound 208, N-((1R,5S,6s)-3-(8-((3-methyl-4-((1-methyl-1H-benzo[d][1,2,3]triazol-5-yl)oxy)phenyl)amino)pyrimido[5,4-d]pyrimidin-2-yl)-3-azabicyclo[3.1.1]heptan-6-yl)acrylamide] | ≤ 6.00 |  | 
20 | C=CC(=O)N[C@@H]1CCN(c2ccc3ncnc(Nc4ccc(Oc5ccc6c(c5)nnn6C)c(C)c4F)c3n2)C[C@H]1F [Compound 287, N-((3R,4R)-3-fluoro-1-(4-((2-fluoro-3-methyl-4-((1-methyl-1H-benzo[d][1,2,3]triazol-5-yl)oxy)phenyl)amino)pyrido[3,2-d]pyrimidin-6-yl)piperidin-4-yl)acrylamide] | 6.30 to 7.00 |  | 
21 | C=CC(=O)N[C@@H]1CCN(c2ncc3ncnc(Nc4ccc(Oc5ccc6c(c5)nnn6C)c(C)c4)c3n2)C1 [Compound 153, (R)-N-(1-(8-((3-methyl-4-((1-methyl-1H-benzo[d][1,2,3]triazol-5-yl)oxy)phenyl)amino)pyrimido [5,4-d]pyrimidin-2-yl)pyrrolidin-3-yl)acrylamide] | 6.30 to 7.00 |  | 
22 | Cc1cc(Nc2ncnc3cnc(N4CCN(C(=O)/C=C/C(F)F)CC4)nc23)ccc1Oc1ccc2c(c1)nnn2C [Compound 216, 4,4-difluoro-1-(4-(8-((3-methyl-4-((1-methyl-1H-benzo[d][1,2,3]triazol-5-yl)oxy)phenyl)amino)pyrimido [5,4-d]pyrimidin-2-yl)piperazin-1-yl)but-2-en-1-one] | 7.00 to 7.30 |  | 
23 | C=C(F)C(=O)N1CCN(c2ncc3ncnc(Nc4ccc(Oc5ccc6c(c5)nnn6C)c(C)c4)c3n2)C[C@H]1CF (single isomer, unassigned) [Compound 219] | ≤ 6.00 |  | 
24 | C=C(F)C(=O)N1C2CCC1CN(c1ncc3ncnc(Nc4ccc(Oc5ccc6c(c5)nnn6C)c(C)c4)c3n1)C2 [Compound 51, 2-fluoro-1-(3-(8-((3-methyl-4-((1-methyl-1H-benzo[d][1,2,3]triazol-5-yl)oxy)phenyl)amino)pyrimido [5,4-d]pyrimidin-2-yl)-3,8-diazabicyclo [3.2.1]octan-8-yl)prop-2-en-1-one 2,2,2-trifluoroacetate] | ≤ 6.00 |  | 
